From ChEMBL document CHEMBL4004838, “Design and synthesis of novel phenyl -1, 4-beta-carboline-hybrid molecules as potential anticancer agents” (Eur J Med Chem, 2017)
Active and inactive are the calls of the source. The rule behind the calls is not given here.

Tests used:
Bos taurus = organism: Bos taurus; assay: Binding affinity to calf thymus DNA assessed as induction of hyperchromic shift at 20 uM sonicated for 35 to 40 mins by UV-vis spectrophotometric analysis
K562 [1] = assay: Growth inhibition of human K562 cells incubated for 48 hrs by sulforhodamine B assay; format: functional; details: K562, 48 h
SW-620 [2] = assay: Growth inhibition of human SW620 cells incubated for 48 hrs by sulforhodamine B assay; format: functional; details: SW-620, 48 h
LOX IMVI = assay: Growth inhibition of human LOXIMVI cells incubated for 48 hrs by sulforhodamine B assay; format: functional
UACC-257 = assay: Growth inhibition of human UACC257 cells incubated for 48 hrs by sulforhodamine B assay; format: functional; details: UACC-257, 48 h
SK-OV-3 = assay: Growth inhibition of human SKOV3 cells incubated for 48 hrs by sulforhodamine B assay; format: functional; details: SK-OV-3, 48 h
A498 = assay: Growth inhibition of human A498 cells incubated for 48 hrs by sulforhodamine B assay; format: functional; details: A498, 48 h
CAKI-1 [3] = assay: Growth inhibition of human Caki1 cells incubated for 48 hrs by sulforhodamine B assay; format: functional; details: CAKI-1, 48 h
MOLT-4 = assay: Growth inhibition of human MOLT4 cells assessed as cell growth at 0.01 uM incubated for 48 hrs by sulforhodamine B assay relative to control; format: functional; details: MOLT-4, 48 h, read-out: Activity
EKVX = assay: Growth inhibition of human EKVX cells assessed as cell growth at 0.01 uM incubated for 48 hrs by sulforhodamine B assay relative to control; format: functional; details: read-out: Activity
NCI-H460 = assay: Growth inhibition of human NCI-H460 cells assessed as cell growth at 0.01 uM incubated for 48 hrs by sulforhodamine B assay relative to control; format: functional; details: NCI-H460, 48 h, read-out: Activity
SK-MEL-28 = assay: Growth inhibition of human SK-MEL-28 cells assessed as cell growth at 0.01 uM incubated for 48 hrs by sulforhodamine B assay relative to control; format: functional; details: SK-MEL-28, 48 h, read-out: Activity
SK-MEL-5 = assay: Growth inhibition of human SK-MEL-5 cells assessed as cell growth at 0.01 uM incubated for 48 hrs by sulforhodamine B assay relative to control; format: functional; details: SK-MEL-5, 48 h, read-out: Activity
786-0 = assay: Growth inhibition of human 786-0 cells assessed as cell growth at 0.01 uM incubated for 48 hrs by sulforhodamine B assay relative to control; format: functional; details: 786-0, 48 h, read-out: Activity
DU-145 = assay: Growth inhibition of human DU145 cells assessed as cell growth at 0.01 uM incubated for 48 hrs by sulforhodamine B assay relative to control; format: functional; details: DU-145, 48 h, read-out: Activity
SW-620 [4] = assay: Growth inhibition of human SW620 cells assessed as cell growth at 0.1 uM incubated for 48 hrs by sulforhodamine B assay relative to control; format: functional; details: SW-620, 48 h, read-out: Activity
IGROV-1 = assay: Growth inhibition of human IGROV1 cells assessed as cell growth at 0.1 uM incubated for 48 hrs by sulforhodamine B assay relative to control; format: functional; details: IGROV-1, 48 h, read-out: Activity
K562 [5] = assay: Growth inhibition of human K562 cells assessed as cell growth at 1 uM incubated for 48 hrs by sulforhodamine B assay relative to control; format: functional; details: K562, 48 h, read-out: Activity
HOP-92 = assay: Growth inhibition of human HOP92 cells assessed as cell growth at 1 uM incubated for 48 hrs by sulforhodamine B assay relative to control; format: functional; details: HOP-92, 48 h, read-out: Activity
NCI-H322M = assay: Growth inhibition of human NCI-H322M cells assessed as cell growth at 1 uM incubated for 48 hrs by sulforhodamine B assay relative to control; format: functional; details: read-out: Activity
Malme-3M [6] = assay: Growth inhibition of human MALME-3M cells assessed as cell growth at 1 uM incubated for 48 hrs by sulforhodamine B assay relative to control; format: functional; details: read-out: Activity
BT-549 [7] = assay: Growth inhibition of human BT549 cells assessed as cell growth at 1 uM incubated for 48 hrs by sulforhodamine B assay relative to control; format: functional; details: BT-549, 48 h, read-out: Activity
RPMI-8226 = assay: Growth inhibition of human RPMI8226 cells assessed as cell growth at 100 uM incubated for 48 hrs by sulforhodamine B assay relative to control; format: functional; details: RPMI-8226, 48 h, read-out: Activity
SW-620 [8] = assay: Growth inhibition of human SW620 cells assessed as cell growth at 100 uM incubated for 48 hrs by sulforhodamine B assay relative to control; format: functional; details: SW-620, 48 h, read-out: Activity
SNB-75 = assay: Growth inhibition of human SNB75 cells assessed as cell growth at 100 uM incubated for 48 hrs by sulforhodamine B assay relative to control; format: functional; details: SNB-75, 48 h, read-out: Activity
Malme-3M [9] = assay: Growth inhibition of human MALME-3M cells assessed as cell growth at 100 uM incubated for 48 hrs by sulforhodamine B assay relative to control; format: functional; details: read-out: Activity
OVCAR-5 = assay: Growth inhibition of human OVCAR5 cells assessed as cell growth at 100 uM incubated for 48 hrs by sulforhodamine B assay relative to control; format: functional; details: OVCAR-5, 48 h, read-out: Activity
CAKI-1 [10] = assay: Growth inhibition of human Caki1 cells assessed as cell growth at 100 uM incubated for 48 hrs by sulforhodamine B assay relative to control; format: functional; details: CAKI-1, 48 h, read-out: Activity
TK-10 = assay: Growth inhibition of human TK10 cells assessed as cell growth at 100 uM incubated for 48 hrs by sulforhodamine B assay relative to control; format: functional; details: TK-10, 48 h, read-out: Activity
BT-549 [11] = assay: Growth inhibition of human BT549 cells assessed as cell growth at 100 uM incubated for 48 hrs by sulforhodamine B assay relative to control; format: functional; details: BT-549, 48 h, read-out: Activity
[12] = read-out: LC50 (the source's name)
[13] = read-out: pLC50 (the source's name) (converted)

## c1ccc2[nH]c(-c3ccc(-c4nccc5c4[nH]c4ccccc45)cc3)nc2c1
Bos taurus
  Activity: Active
K562 [1]; read-out: GI50
  GI50: 2.33 µM
K562 [1]; [12]
  CC50: 4.24 µM
K562 [1]; read-out: TGI
  TGI: 5.47 µM
K562 [1]; read-out: pGI50 (converted)
  GI50: 2.34 µM
K562 [1]; [13]
  CC50: 42.7 µM
K562 [1]; read-out: pTGI (converted)
  TGI: 5.5 µM
SW-620 [2]; read-out: GI50
  GI50: 2.79 µM
SW-620 [2]; [12]
  CC50: > 1 µM
SW-620 [2]; read-out: TGI
  TGI: 8.48 µM
SW-620 [2]; read-out: pGI50 (converted)
  GI50: 2.82 µM
SW-620 [2]; [13]
  CC50: > 100 µM
SW-620 [2]; read-out: pTGI (converted)
  TGI: 8.51 µM
LOX IMVI; read-out: GI50
  GI50: 1.67 µM
LOX IMVI; read-out: TGI
  TGI: 3.82 µM
LOX IMVI; read-out: pGI50 (converted)
  GI50: 1.66 µM
LOX IMVI; read-out: pTGI (converted)
  TGI: 3.8 µM
UACC-257; read-out: GI50
  GI50: 1.83 µM
UACC-257; [12]
  CC50: 6.73 µM
UACC-257; read-out: TGI
  TGI: 3.5 µM
UACC-257; [13]
  CC50: 6.76 µM
SK-OV-3; [12]
  CC50: 4.66 µM
SK-OV-3; read-out: pGI50 (converted)
  GI50: 4.37 µM
SK-OV-3; [13]
  CC50: 46.8 µM
SK-OV-3; read-out: pTGI (converted)
  TGI: 15.8 µM
A498; read-out: GI50
  GI50: 1.14 µM
A498; [12]
  CC50: 5.68 µM
A498; read-out: pGI50 (converted)
  GI50: 11.5 µM
A498; [13]
  CC50: 56.2 µM
A498; read-out: pTGI (converted)
  TGI: 25.7 µM
CAKI-1 [3]; read-out: GI50
  GI50: 2.41 µM
CAKI-1 [3]; [12]
  CC50: 3.68 µM
CAKI-1 [3]; read-out: TGI
  TGI: 7.11 µM
CAKI-1 [3]; read-out: pGI50 (converted)
  GI50: 2.4 µM
CAKI-1 [3]; [13]
  CC50: 37.2 µM
CAKI-1 [3]; read-out: pTGI (converted)
  TGI: 7.08 µM
MOLT-4
  growth at 0.01 µM: 96%
EKVX
  growth at 0.01 µM: 94%
NCI-H460
  growth at 0.01 µM: 107%
SK-MEL-28
  growth at 0.01 µM: 96%
SK-MEL-5
  growth at 0.01 µM: 94%
786-0
  growth at 0.01 µM: 89%
DU-145
  growth at 0.01 µM: 98%
SW-620 [4]
  growth at 0.1 µM: 103%
IGROV-1
  growth at 0.1 µM: 99%
K562 [5]
  growth at 1 µM: 100%
HOP-92
  growth at 1 µM: 85%
NCI-H322M
  growth at 1 µM: 96%
Malme-3M [6]
  growth at 1 µM: 96%
BT-549 [7]
  growth at 1 µM: 90%
RPMI-8226
  growth at 100 µM: 43%
SW-620 [8]
  growth at 100 µM: 33%
SNB-75
  growth at 100 µM: 84%
Malme-3M [9]
  growth at 100 µM: 72%
OVCAR-5
  growth at 100 µM: 62%
CAKI-1 [10]
  growth at 100 µM: 76%
TK-10
  growth at 100 µM: 85%
BT-549 [11]
  growth at 100 µM: 43%

## c1ccc2c3c([nH]c2c1)C(c1ccc(C2NCCc4c2[nH]c2ccccc42)cc1)NCC3 (racemic)
Bos taurus
  Activity: Active
K562 [1]; read-out: GI50
  GI50: 2.44 µM
K562 [1]; [12]
  CC50: 9.75 µM
K562 [1]; read-out: TGI
  TGI: 4.88 µM
K562 [1]; read-out: pGI50 (converted)
  GI50: 0.245 µM
K562 [1]; [13]
  CC50: 0.977 µM
K562 [1]; read-out: pTGI (converted)
  TGI: 4.9 µM
SW-620 [2]; read-out: GI50
  GI50: 1.85 µM
SW-620 [2]; [12]
  CC50: 6.39 µM
SW-620 [2]; read-out: TGI
  TGI: 3.44 µM
SW-620 [2]; read-out: pGI50 (converted)
  GI50: 0.186 µM
SW-620 [2]; [13]
  CC50: 0.646 µM
LOX IMVI; read-out: GI50
  GI50: 1.96 µM
LOX IMVI; [12]
  CC50: 1.1 µM
LOX IMVI; read-out: TGI
  TGI: 4.5 µM
LOX IMVI; read-out: pGI50 (converted)
  GI50: 0.195 µM
LOX IMVI; [13]
  CC50: 1.1 µM
LOX IMVI; read-out: pTGI (converted)
  TGI: 4.47 µM
UACC-257; read-out: GI50
  GI50: 1.19 µM
UACC-257; [12]
  CC50: 6.5 µM
UACC-257; read-out: TGI
  TGI: 3.52 µM
UACC-257; read-out: pGI50 (converted)
  GI50: 1.91 µM
UACC-257; [13]
  CC50: 6.46 µM
UACC-257; read-out: pTGI (converted)
  TGI: 3.55 µM
SK-OV-3; read-out: GI50
  GI50: 1.88 µM
SK-OV-3; [12]
  CC50: 9.12 µM
SK-OV-3; read-out: TGI
  TGI: 4.14 µM
SK-OV-3; read-out: pGI50 (converted)
  GI50: 1.86 µM
SK-OV-3; [13]
  CC50: 9.12 µM
SK-OV-3; read-out: pTGI (converted)
  TGI: 4.17 µM
A498; read-out: GI50
  GI50: 1.64 µM
A498; [12]
  CC50: 36.9 µM
A498; read-out: TGI
  TGI: 8.87 µM
A498; read-out: pGI50 (converted)
  GI50: 1.66 µM
A498; [13]
  CC50: 37.2 µM
A498; read-out: pTGI (converted)
  TGI: 8.91 µM
CAKI-1 [3]; read-out: GI50
  GI50: 1.66 µM
CAKI-1 [3]; [12]
  CC50: 9.82 µM
CAKI-1 [3]; read-out: TGI
  TGI: 4.03 µM
CAKI-1 [3]; read-out: pGI50 (converted)
  GI50: 1.66 µM
CAKI-1 [3]; [13]
  CC50: 9.77 µM
CAKI-1 [3]; read-out: pTGI (converted)
  TGI: 4.07 µM
MOLT-4
  growth at 0.01 µM: 110%
EKVX
  growth at 0.01 µM: 88%
NCI-H460
  growth at 0.01 µM: 105%
SK-MEL-28
  growth at 0.01 µM: 95%
SK-MEL-5
  growth at 0.01 µM: 99%
786-0
  growth at 0.01 µM: 96%
DU-145
  growth at 0.01 µM: 100%
SW-620 [4]
  growth at 0.1 µM: 100%
IGROV-1
  growth at 0.1 µM: 92%
K562 [5]
  growth at 1 µM: 52%
HOP-92
  growth at 1 µM: 44%
NCI-H322M
  growth at 1 µM: 65%
Malme-3M [6]
  growth at 1 µM: 82%
BT-549 [7]
  growth at 1 µM: 85%
RPMI-8226
  growth at 100 µM: 75%
SW-620 [8]
  growth at 100 µM: 87%
SNB-75
  growth at 100 µM: 98%
Malme-3M [9]
  growth at 100 µM: 83%
OVCAR-5
  growth at 100 µM: 90%
CAKI-1 [10]
  growth at 100 µM: -98%
TK-10
  growth at 100 µM: -96%
BT-549 [11]
  growth at 100 µM: -90%
